# Read-outs that look alike come from different tables or passages of the source.
# Columns and labels:
# [1] = Minimum plasma concentrations of FLO during multiple oral administrations; type: in vivo; settings: European seabass (Dicentrarchus labrax), 10 mg/kg/day, multiple oral 10 mg/kg per day for seven consecutive days, 24°C, read-out: Minimum plasma concentrations at the 24 hr sampling intervals
# Experimental: The extraction step was repeated twice.
# (§1) The flow rate was 1.0 ml/min.
# Results are presented as means ± SD (standard deviation of the mean). […] The SPSS version 25.0 (International Business Machines Corporation, Armonk, NY, USA) was used for the statistical analysis.
# [2] = 28‰, MO, 10 × 10d mg/kg fish, 150 g, 27 °C; ref Di Salvo et al. (2013); cited from earlier work
# [3] = 33‰, SO‐FA, cited from earlier work
# [4] = 0‰, 25 °C, cited from earlier work
# [5] = parameters: method as in Yanong et al. (2005); settings: 0‰, SO, 50 mg/kg fish, 144 g, 23–25 °C; ref Yanong et al. (2005); cited from earlier work
# [6] = parameters: method as in Xie et al. (2013); settings: 0‰, SO‐FA, 20 mg/kg fish, 71 g, 25 °C; ref Xie et al. (2013); cited from earlier work
# [7] = parameters: method as in de Ocenda et al. (2017); settings: 35‰, SO‐FA, 100 mg/kg fish, 101 g, 16 °C; ref de Ocenda et al. (2017); cited from earlier work
# [8] = cited from earlier work
# [9] = parameters: method as in Chang et al. (2019); settings: 31‰, SO‐FA, 30 mg/kg fish, 615 g, ref Chang et al. (2019), cited from earlier work
# [10] = parameters: method as in Huang et al. (2019); settings: 0‰, 50 g, ref Huang et al. (2019), cited from earlier work; for C max / T max / t 1/2b: SO‐FA, 25 mg/kg fish
# [11] = parameters: method as in Wrzesinski et al. (2006); settings: 0‰, MO, 10 × 12d mg/kg fish, 916 g, 18–20 °C; ref Wrzesinski et al. (2006); cited from earlier work
# [12] = 0‰, cited from earlier work
# [13] = parameters: method as in Lim et al. (2010); settings: ref Lim et al. (2010), cited from earlier work
# [14] = parameters: method as in Park et al. (2006); settings: 0‰, SO, 20 mg/kg fish, 280 g, 24 °C; ref Park et al. (2006); cited from earlier work
# [15] = Residue depletion in muscle plus skin and withdrawal times after multiple oral dosing; type: in vivo, European seabass Dicentrarchus labrax; settings: 10 mg kg^−1 day^−1 for 7 days, 24°C, mean ± SD
# Experimental: Briefly, muscle plus skin samples were sheared, and subsequently 2 g of ground sample was weighed into a 50 ml centrifuge tube. Ten ml of ethyl acetate were added and the mixture was homogenized with an IKA Ultra‐Turrax T25 Disperser (IKA®‐Werke GmbH & Co. KG, Staufen, Germany) for 30 s at […]. The mixture was agitated for 20 min and then was centrifuged at 3,500 rpm/min for 10 min at 5°C. […] The combined extract was then evaporated to dryness at 45°C under nitrogen stream. Two milliliter of hexane and 1 ml of mobile phase solution were added in the residue. After gentle agitation for 5 min, the mixture was centrifuged (2,150 g for 5 min). The upper layer (hexane) was discarded and the de‐fatting step was repeated. The bottom layer (1 ml) was filtered (0.22 μm nylon filter) and then was subjected to HPLC analysis.
# as §1
# Withdrawal period was determined at the time when the upper one‐sided 95% tolerance limit for the residue was below the MRL with 95% confidence.
# [16] = parameters: method as in Kosoff et al. (2009); settings: 0‰, MO, 10 × 10d mg/kg fish, 49–52 g, 20–25 °C; ref Kosoff et al. (2009); cited from earlier work
# [17] = 24 mg/kg fish, 125 g, 23 °C, ref Feng et al. (2016)
# [18] = 5–10 mg/kg fish, 103–301 g, 29 °C, ref Feng et al. (2018)
# [19] = MO‐FA, 10 × 10d mg/kg fish, 612 g, ref Gaunt et al. (2013)
# [20] = SO‐FA, 10 mg/kg fish, ref Gaunt et al. (2012)
# [21] = 30‰, SO‐FA, 10 mg/kg fish, 194 g, 11 °C, ref Martinsen et al. (1993)
# [22] = MO‐FA, 10 × 5d mg/kg fish, 330 g, 10 °C, ref Yang et al. (2020)
# [23] = MO‐FA, 10 × 5d mg/kg fish, 330 g, 25 °C, ref Yang et al. (2020)
# [24] = SO‐FA, 10 mg/kg fish, 260 g, 10 °C, ref Yang et al. (2019)
# [25] = SO‐FA, 10 mg/kg fish, 260 g, 25 °C, ref Yang et al. (2019)
# [26] = SO‐FA, 40 mg/kg fish, 260 g, 25 °C, ref Zhao et al. (2011)
# [27] = 33‰, MO, 20 × 3d mg/kg fish, 380 g, 19 °C
structure (smiles),measurement,setting,value
"CS(=O)(=O)c1ccc([C@@H](O)[C@@H](CF)NC(=O)C(Cl)Cl)cc1 [FLO, florfenicol]",concentration at 24 hr,[1],0.22 to 0.55 µg/mL
same,WT,[2],95 h
same,C max,[3]; [17],28 µg/mL
same,t 1/2b,[3]; [17],11.6 h
same,C max,[3]; [18],6 to 13 µg/mL
same,t 1/2b,[3]; [18],8.5 to 9.3 h
same,C max,[4]; [19],9.7 µg/mL
same,T max,[4]; [19],8 h
same,C max,[4]; [20],7.6 µg/mL
same,T max,[4]; [20],9 h
same,t 1/2b,[4]; [20],9.1 h
same,C max,[5],12.3 µg/mL
same,T max,[5],3 h
same,C max,[6],8.4 µg/mL
same,T max,[6],5 h
same,t 1/2b,[6],13.5 h
same,C max,[7],55.4 µg/mL
same,T max,[7],12 h
same,C max,[8]; [21],4 µg/mL
same,T max,[8]; [21],10.3 h
same,C max,"[8]; 35‰, MO, 10 × 10d mg/kg fish, 497 g, 10 °C, ref Horsberg et al. (1996)",8.56 µg/mL
same,C max,"[8]; 35‰, SO‐FA, 10 mg/kg fish, 460 g, 10 °C, ref Horsberg et al. (1996)",9.1 µg/mL
same,C max,[9]; 15 °C,9.1 µg/mL
same,t 1/2b,[9]; 15 °C,14.3 h
same,T max,[9]; 15–20 °C,12 h
same,C max,[9]; 20 °C,12.2 µg/mL
same,t 1/2b,[9]; 20 °C,9.7 h
same,WT,"[10]; MO‐FA, 25 × 3d mg/kg fish, 28 °C",198 h
same,C max,[10]; 18 °C,5.9 µg/mL
same,T max,[10]; 18 °C,6.0 h
same,t 1/2b,[10]; 18 °C,26.8 h
same,C max,[10]; 28 °C,6.2 µg/mL
same,T max,[10]; 28 °C,2.8 h
same,t 1/2b,[10]; 28 °C,16.1 h
same,WT,[11],96 h
same,C max,[12]; [22],4.0 µg/mL
same,t 1/2b,[12]; [22],19.9 h
same,C max,[12]; [23],1.7 µg/mL
same,t 1/2b,[12]; [23],12.9 h
same,C max,[12]; [24],2.4 µg/mL
same,T max,[12]; [24],2.8 h
same,t 1/2b,[12]; [24],22.9 h
same,C max,[12]; [25],3.5 µg/mL
same,T max,[12]; [25],3.7 h
same,t 1/2b,[12]; [25],9.6 h
same,C max,[12]; [26],29.3 µg/mL
same,T max,[12]; [26],1.6 h
same,t 1/2b,[12]; [26],2.2 h
same,C max,[13]; [27],12.2 µg/mL
same,WT,[13]; [27],189 h
same,Tissue distribution,[13]; multiple oral 20 mg kg^−1 day^−1 for three consecutive days,higher tissue concentrations of FLO in gills than in the other tested tissue samples
same,C max,[14],9.6 µg/mL
same,T max,[14],8 h
same,Muscle plus skin FLO concentration,[15]; 144 hours after last dosing,below LOQ
same,concentration at 24 hours after last dosing,"[15]; European seabass (Dicentrarchus labrax), in vivo, 24 hours after last dosing",800 ± 1740 ng/g
same,concentration at 48 hours after last dosing,"[15]; European seabass (Dicentrarchus labrax), in vivo, 48 hours after last dosing",250 ± 640 ng/g
same,concentration at 72 hours after last dosing,"[15]; European seabass (Dicentrarchus labrax), in vivo, 72 hours after last dosing",40 ± 20 ng/g
same,concentration at 96 hours after last dosing,"[15]; European seabass (Dicentrarchus labrax), in vivo, 96 hours after last dosing",40 ± 10 ng/g
same,concentration at 144 hours after last dosing,"[15]; European seabass (Dicentrarchus labrax), in vivo, 144 hours after last dosing",30 ± 10 ng/g
same,C max,[16],9.2 to 15.1 µg/mL
same,WT,[16],232 to 302 h
